Key:
[1] = system: human panelists, savory taste; assay: Savory taste test with trained human panel (difference from reference); type: in vivo
Protocol: General Panelist Selection: Basic screening of sensory taste testers: Potential panelists were tested for their abilities to rank and rate intensities of solutions representing the five basic tastes. Panelists ranked and rated intensity of five different concentrations of each of the five following compounds: sucrose (sweet), sodium chloride (salty), citric acid (sour), caffeine (bitter), and monosodium glutamate (savory). In order to be selected for participation in testing, panelists needed to correctly rank and rate samples for intensity, with a reasonable number of errors.
Preliminary Taste Tests: The panelists selected in the above procedure were deemed qualified for performing Preliminary Taste Testing procedures. The preliminary taste tests are used to evaluate new compounds for intensity of basic tastes and off-tastes. A small group of panelists (n=5) taste approximately 5 concentrations of the compound (range typically between 1-100 μM, in half-log cycles, e.g., 1, 3, 10, 30, and 100 μM) in water and in a solution of 12 mM MSG to evaluate enhancement. Panelists rate the five basic tastes (sweet, salty, sour, bitter, and savory) as well as off-tastes (such as chemical, metallic, sulfur) on a labeled magnitude scale. Samples are served in 10 mL portions at room temperature. The purpose of the test is to determine the highest concentration at which there is no objectionable off-taste, and determine if obvious savory taste or enhancement of savory taste exists at any of the concentrations tested.
Trained Panelist Selection: A trained expert panel was used to further evaluate compounds that had been tested with the preliminary taste test.
Panelists for the trained panel were selected from the larger group of qualifying taste panelists. Panelists were further trained on savory taste by ranking and rating experiments using MSG and IMP combinations. Panelists completed a series of ranking, rating, and difference from reference tests with savory solutions. In ranking and rating experiments, panelists evaluated easy MSG concentrations (0, 6, 18, 36 mM) and more difficult MSG concentrations (3, 6, 12, 18 mM MSG) in water.
Compound testing with Trained Panel: Compounds tested by the trained panel were evaluated in difference from reference experiments. […] Test samples were solutions with varying amounts of MSG, IMP, and the compound. Typically, each session compares the reference sample to numerous test samples. […] Compounds were tested against the reference in samples with and without 12 mM MSG. All samples were presented in 10 ml volumes at room temperature. Two sessions were completed for each compound tested to evaluate panel reproducibility.

[2] = system: human subjects, savory taste; assay: Human taste test of low sodium tomato juice; type: in vivo; conditions: 3 μM cpd; 400 mg Na/8 oz tomato juice
Protocol: Human taste tests were conducted in order to evaluate the ability of the compounds of the invention to enhance the savory flavor of low sodium tomato juice (which naturally comprises some monosodium glutamate).
The final tomato juice samples for taste testing were prepared so as to comprise 90% (by volume) pre-made low sodium tomato juice stock (pH 4.2, 80˜100 mg Na/8 oz, 16 mM of naturally occurring MSG), 5% (by volume) of stock solutions formulated to produce selected final levels of sodium of final juice, and 5% (by volume) of a stock solution of the compound of the invention. Selected oxalamide compounds of the invention were dissolved in LSB (low sodium phosphate buffer), to provide a stock solution at 20 times the desired final concentration in the final tomato juice. The desired final sodium concentration of the final tomato juice was most experiments 73.6 mM (400 mg sodium in 8 oz. of juice), therefore a stock solution of NaCl was made at 1.48 M NaCl. The pH for the stock solutions was adjusted to 4.2 using a 1 M citric acid solution, and the stock solutions were sonicated to ensure the additive compounds were completely dissolved. […]
Scores were averaged across panelists and sessions, and evaluated using a 2-way ANOVA (factors: panelists and samples) and Duncan's multiple comparison test (alpha=0.05) to determine significant differences in intensity ratings.

SMILES: COc1cc(C)ccc1CNC(=O)C(=O)NCCc1ccc(C)cn1 [Example 30, N^1-(2-methoxy-4-methylbenzyl)-N^2-(2-(5-methylpyridin-2-yl)ethyl)oxalamide]
- Taste Data: cpd concentration as strong as 12 mM MSG ([1]; compound alone, without MSG): 0.3 μM cpd as strong as
- Taste Data: cpd concentration at which 12 mM MSG + cpd is as strong as 12 mM MSG + 100 μM IMP ([1]; with 12 mM MSG, reference 12 mM MSG + 100 μM IMP): 12 mM MSG + 0.3 μM cpd as
- Enhancement of the savory taste of 16 mM glutamate (naturally existing) in low sodium tomato juice [2]: by 1.8 to 1.9-fold
- melting point: 133.5 to 134 °C
